Source: PubChem BioAssay AID1996
In brackets after ≈: the same amount, converted by molar mass.

settings: buffer; pH 7.4; 200.0 µM

Row | Structure (SMILES) | solubility kinetic [µg/mL]
1 | CN1C(=O)CSC1=Nc1cccc(Cl)c1 | 34.2 (≈ 142 µM)
2 | COc1ccc(NC(=O)CSC2=NCCN2)cc1.Cl | > 45.3
3 | COc1cc(SC)ccc1C(=O)NC1CCCc2ccccc21 (centres undefined) | < 0.7
4 | CC(C)(C)c1ccc(OCCCCCCN2CCNCC2)cc1 | 31.9 (≈ 100 µM)
5 | CC1(C)C2CCC1(CS(=O)(=O)NC1CCCC1)C(=O)C2 (centres undefined) | > 44.9
6 | COc1ccc(C(=O)OCC(=O)NC2CCCCCCC2)cc1OC | 29 (≈ 83 µM)
7 | O=C(NC(=O)c1ccccc1Cl)Nc1ccc(-c2cnco2)cc1 | < 0.2
8 | CC(NC(=O)CSc1ncccc1C(=O)O)C1CC2CCC1C2 (centres undefined) | > 50.2
9 | O=c1c(Cc2ccccc2)c(O)c2cccc3c4c(n1c23)CCCC4 | 3.7 (≈ 11.2 µM)
10 | COc1ccc(S(=O)(=O)n2cnc3ccccc32)cc1OC | > 47.8
11 | CC(=O)Nc1ccc(Nc2ccccc2)cc1 | > 33.9
12 | COC(=O)c1ccc(-n2c(C)cc(C(=O)COC(=O)C3=COCCO3)c2C)cc1 | 3.7 (≈ 9.26 µM)
13 | CN1CCN(S(=O)(=O)c2ccc(Cl)c3ccccc23)CC1 | 45.1 (≈ 139 µM)
14 | CC1CC(C)CN(C(=O)CSc2n[nH]c(N)n2)C1 (centres undefined) | > 40.4
15 | CC(=O)Nc1ccc(NS(=O)(=O)c2cccc3nonc23)cc1 | > 49.8
16 | CCCn1c(N2CCN(C(=O)/C=C/C(=O)O)CC2)nc2ccccc21 | > 51.4
17 | Cc1nnc(SCC(=O)Nc2sccc2C#N)s1 | > 44.5
18 | CN(C)C(=O)Oc1cccc(NC(=O)c2ccccc2C(F)(F)F)c1 | 37.9 (≈ 108 µM)
19 | COC(=O)c1[nH]c2cc(OC)ccc2c1N=CN(C)C | 38.4 (≈ 139 µM)
20 | COC(=O)c1ccc(NC(=O)C2CC(=O)OC2c2ccccc2)cc1 (centres undefined) | 36 (≈ 106 µM)
21 | O=c1[nH]c(/C=C/c2cccc([N+](=O)[O-])c2)c([N+](=O)[O-])c(=O)[nH]1 | 34.8 (≈ 114 µM)
22 | O=Cc1cccn1-c1nccc(-c2ccco2)n1 | 24.7 (≈ 103 µM)
23 | NC(Cc1c[nH]c2ccccc12)C(=O)NCc1ccccc1 (centres undefined) | 39.1 (≈ 133 µM)
24 | CCOc1ccccc1/C=C\c1nc(O)c([N+](=O)[O-])c(=O)[nH]1 | > 45.5

Row | Structure (SMILES) | solubility kinetic [µg/mL]
25 | COC(=O)c1sccc1NC(=O)c1ccc(Cl)cc1 | < 0.6
26 | COc1ccc(C(CNC(=O)c2ccc3c(c2)CCC3)N(C)C)cc1 (centres undefined) | > 50.8
27 | O=C1NC(c2cccc([N+](=O)[O-])c2)=CCN1c1ccccc1O | 45.2 (≈ 145 µM)
28 | Cc1cc2c(NCc3ccccc3)ncnc2s1.Cl | 41.7
29 | CCOc1ccc(NC(=O)c2ccccc2NC(=O)c2cccnc2)cc1 | 1.4 (≈ 3.87 µM)
30 | O=C(Cc1cc2ccccc2o1)NCc1ccc(F)cc1 | 5 (≈ 17.6 µM)
31 | COC(=O)c1ccc(C(=O)OC)c(NC(=S)N2CCN(C)CC2)c1 | > 52.7
32 | O=S(=O)(c1ccc(Cl)cc1)N1CCCCC1c1cccnc1 (centres undefined) | 47.7 (≈ 142 µM)
33 | O=C(C[n+]1cccc(O)c1)NCc1ccc(Cl)cc1.[Cl-] | > 47
34 | Cc1ccc(-c2ncns2)cc1 | 0.5 (≈ 2.84 µM)
35 | CCC(C)c1ccccc1N=Cc1ccc2c(c1)OCO2 (centres undefined) | 7.1 (≈ 25.2 µM)
36 | Cc1onc(-c2ccccc2Cl)c1C(=O)N1CCN(C)CC1 | > 48
37 | CC1=NN(C(=O)c2ccccc2C)C(O)(c2ccc(Cl)cc2)C1 (centres undefined) | > 49.3
38 | COC(=O)[C@H](CC(C)C)NC(=O)NCc1ccc(Cl)cc1 | 42.5 (≈ 136 µM)
39 | Cc1cccn2c(=O)c(C=O)c(NCc3ccccc3)nc12 | 0.2 (≈ 0.682 µM)
40 | Cc1cc(C)cc(NC(=O)C(=O)NCCCN2CCOCC2)c1 | > 47.9
41 | Cl.Nc1ccc(Oc2cc(N)cc(Oc3ccccc3)c2)cc1 | 30.1
42 | O=C(NCc1ccc2c(c1)CCO2)Nc1ccccc1 | 8.7 (≈ 32.4 µM)
43 | O=C(O)/C=C/C(=O)NCCc1ccc(Cl)cc1 | > 38.1
44 | Cc1ccc(C(=O)Nc2cccc(C(O)c3ccccc3)c2)cc1 (centres undefined) | 2.5 (≈ 7.88 µM)
45 | CC1=N/C(=C/c2cc(Br)cc(Br)c2O)C(=O)O1 | 2.8 (≈ 7.76 µM)
46 | Cc1ccc(OCC(=O)N2CCN(C(=O)c3cccc(F)c3)CC2)cc1 | > 53.5
47 | CC(C)c1ccccc1NC(=S)NCc1nc2ccccc2[nH]1 | > 48.7
48 | N/C(CCS(=O)(=O)c1ccc(Cl)cc1)=N\OC(=O)c1ccccc1Cl | 41.6 (≈ 104 µM)

Row | Structure (SMILES) | solubility kinetic [µg/mL]
49 | CC1(C)Cc2cccc(C(=O)NC3CCN(Cc4ccccc4)CC3)c2O1 | 53.2 (≈ 146 µM)
50 | CC(=O)N1CCN(c2ccc([N+](=O)[O-])c(NCc3cccnc3)c2)CC1 | > 53.3
51 | CCc1ccc(OCC(=O)O/N=C(\N)c2ccncc2)cc1 | 7.1 (≈ 23.7 µM)
52 | C/C(=N\NC1=NCCN1)c1ccc(N)c([N+](=O)[O-])c1 | > 39.3
53 | CC1=Nc2ccccc2/C1=C/c1c(O)n(C)c(=O)[nH]c1=O | > 42.5
54 | O=S(=O)(c1ccc(F)cc1)N1CCc2ccccc2C1 | 1.2 (≈ 4.12 µM)
55 | Cc1ccc(CNc2nc3ccccc3n2C)o1 | > 36.2
56 | CC(=O)c1ccc(Sc2ccccc2N)c([N+](=O)[O-])c1 | 19.6 (≈ 68 µM)
57 | CC(C)C1Oc2ccccc2N(CC(=O)N2CCOCC2)C1=O (centres undefined) | > 47.8
58 | CCN(CC)C(=O)c1ccccc1NC(=O)c1ccccc1C | > 46.6
59 | COc1cccc(N2C(=O)C3CCCN3C2=S)c1 (centres undefined) | > 39.3
60 | Cc1cc(C)cc(NS(=O)(=O)Cc2ccccc2)c1 | 39.5 (≈ 143 µM)
61 | Cc1cnc(C(=O)OCC(=O)N=c2sccn2Cc2ccccc2Cl)cn1 | 55.2 (≈ 137 µM)
62 | CN(C)Cc1c(O)ccc2c(=O)c(-c3ccccc3Cl)coc12 | > 49.5
63 | CC(=O)c1ccccc1NS(=O)(=O)c1cccc2nsnc12 | 1.5 (≈ 4.5 µM)
64 | CCOCCCNc1ncnc2c1nc1n2CCCC1 | > 41.3
65 | CC(=O)c1c(C)c(C)c2n1CCn1c(C)ccc1-2 | 13.4 (≈ 55.3 µM)
66 | CC(C)OP(=O)(OC(C)C)C(O)c1ccc(N(C)C)cc1 (centres undefined) | > 47.3
67 | Cc1cccc2sc(NC(=O)CN3C(=O)NC4(CCCC4)C3=O)nc12 | 46.6 (≈ 130 µM)
68 | CC(=O)Nc1ccccc1NS(=O)(=O)c1ccccc1[N+](=O)[O-] | 47.4 (≈ 141 µM)
69 | COc1cc(C)ccc1OC(C)C(=O)Nc1ccc(N2CCCCC2)cc1 (centres undefined) | 2.7 (≈ 7.33 µM)
70 | N#Cc1cccc(NS(=O)(=O)c2ccccc2Cl)c1 | > 43.9
71 | Cc1cccc(OCC(=O)NCCNC(=O)c2cnccn2)c1 | 46.5 (≈ 148 µM)
72 | COC(=O)[C@H](Cc1ccccc1)NC(=O)N1CCCCCC1 | > 45.7

Row | Structure (SMILES) | solubility kinetic [µg/mL]
73 | CC(C)(CNCc1ccccc1)NS(=O)(=O)c1ccc(Cl)cc1 | > 52.9
74 | Cl.N=C(c1cccc([N+](=O)[O-])c1)N1CCCCCC1 | > 42.6
75 | CCOC(=O)c1ccc(N=Cc2c(O)c3ccccc3oc2=O)cc1 | 4.7 (≈ 13.9 µM)
76 | CC(CN1C(C)CCCC1C)OC(=O)c1ccccc1Cl (centres undefined) | > 46.5
77 | COc1ccc(-c2cc(C(=O)N3CCCC3)no2)cc1 | 30.4 (≈ 112 µM)
78 | O=C(c1ccccc1)N1CCN(S(=O)(=O)c2cccs2)CC1 | > 50.5
79 | COc1cc(OC)c(C(=O)OCC(=O)Nc2ccc(N3CCOCC3)cc2)cc1OC | 6.5 (≈ 15.1 µM)
80 | CCCOP(=O)(c1ccc(N(C)C)cc1)C(O)c1ccc(Cl)cc1 (centres undefined) | 18.5 (≈ 50.3 µM)
81 | N#CCN1CCC2(O)CCCCC2C1c1ccc2c(c1)OCO2 (centres undefined) | 42 (≈ 134 µM)
82 | O=C(OCc1ccc(Br)cc1)c1cccnc1 | 40.5 (≈ 139 µM)
83 | CC(NC(=O)COC(=O)c1c[nH]c2ccccc12)c1ccccc1 (centres undefined) | 46.2 (≈ 143 µM)
84 | Cl.O=[N+]([O-])c1ccccc1OCC(O)CNC1CCCC1 (centres undefined) | 46.2
85 | COc1ccc2cc(CCl)c(Cl)nc2c1 | 19.2 (≈ 79.3 µM)
86 | O=C(CN1CCOCC1)Nc1nc2ccc(Cl)cc2s1 | 45.8 (≈ 147 µM)
87 | CCOc1ccccc1C(=O)NCC(=O)OCCOc1cccc(Cl)c1 | 34 (≈ 90 µM)
88 | CCOc1ccc2nc(NC(=O)CN3CCN(CC)CC3)sc2c1 | 47.6 (≈ 137 µM)
89 | CN(CC(=O)Nc1cccc([N+](=O)[O-])c1)S(=O)(=O)c1ccccc1 | > 52.4
90 | Cc1ccc(N2C(=O)C(Cl)=C(N3CCOCC3)C2=O)c(C)c1 | 36.3 (≈ 113 µM)
91 | O=C(COC(=O)CNC(=O)c1ccc(Cl)c([N+](=O)[O-])c1)NC(=O)c1ccccc1 | 52.9 (≈ 126 µM)
92 | CN(C(=O)c1ccc(N2CCOCC2)c([N+](=O)[O-])c1)C1CCCCC1 | > 52.1
93 | Cc1ccc(NS(=O)(=O)c2cccc3nsnc23)cc1 | 36 (≈ 118 µM)
94 | Cc1ccc(C)c(NS(=O)(=O)c2ccc3[nH]c(=O)[nH]c3c2)c1 | 4.8 (≈ 15.1 µM)
95 | COc1cccc(Oc2nc(-c3ccccc3O)nc3ccccc23)c1 | < 0.4
96 | O=C(Nc1ccccc1)c1ccc(=O)n(Cc2cccc(Cl)c2)c1 | 22.1 (≈ 65.2 µM)

Row | Structure (SMILES) | solubility kinetic [µg/mL]
97 | Cc1ccc2c(c1)N(CC(=O)N1CCCCCC1)C(=O)C(C)O2 (centres undefined) | > 47.5
98 | C/C(=N\OC(=O)c1ccc(C)cc1)c1c(C)nc2cc(C)ccn12 | 6.6 (≈ 20.5 µM)
99 | CCc1nc(N2CCN(C(C)=O)CC2)c2c3c(sc2n1)CCCC3 | > 51.7
100 | CC(C)N(C(=O)Cn1c(=O)oc2ccccc21)c1ccccc1 | 0.7 (≈ 2.26 µM)
101 | CC1C(=O)Nc2ccccc2N1C(=O)c1cccc(C(F)(F)F)c1 (centres undefined) | > 50.1
102 | O=C(Cc1ccccc1)NCC(=O)Nc1ccccc1Br | 51.4 (≈ 148 µM)
103 | Cc1ccc(-c2nc(C(=O)O)cs2)cc1 | 29.5 (≈ 135 µM)
104 | O=C(O)c1ccc(N=C2NC(=O)C(CO)(CO)S2)cc1 | > 44.4
105 | O=C1NCC(COc2cccc3ccccc23)O1 (centres undefined) | > 36.5
106 | O=C(CSc1ncccc1C(=O)O)c1cccc(C(F)(F)F)c1 | > 51.2
107 | CC(C)C(NC(=O)C1CCCCC1)C(=O)NCCc1ccccc1 (centres undefined) | 1.3 (≈ 3.93 µM)
108 | COc1ccc(NC(=O)COC(=O)C2CCC2)cc1Cl | 42.8 (≈ 144 µM)
109 | CNc1nc2cccnc2s1 | > 24.8
110 | COC(=O)c1ccc(N)nc1 | > 22.8
111 | Cc1noc(C)c1C(=O)Nc1ccccc1N1CCCC1 | 37.6 (≈ 132 µM)
112 | COc1ccc(NC(=O)CN2C(=O)NC(C)(c3ccc4c(c3)OCCO4)C2=O)cc1S(N)(=O)=O (centres undefined) | > 73.6
113 | Cc1nc2sc(C(=O)Nc3ccccc3)c(N)c2c(C)c1[N+](=O)[O-] | 0.8 (≈ 2.34 µM)
114 | c1cc(CNCCc2ccc3c(c2)OCO3)ccn1 | 28.5 (≈ 111 µM)
115 | CCOC(=O)C1Sc2ccccc2NC1=O (centres undefined) | > 35.6
116 | CNC(=S)N(CCc1c(C)[nH]c2ccccc12)Cc1ccco1 | 1.5 (≈ 4.58 µM)
117 | CC(C)c1ccccc1NC(=O)COC(=O)c1cccnc1 | > 44.8
118 | CN(C)CC/C=C1/c2cc(F)ccc2Sc2ccc(Cl)cc21.Cl | 32.8
119 | Clc1nc(Cl)nc(NCCC2=CCCCC2)n1 | > 41
